Data set [1] deals with T1, TRPM8 (Rattus norvegicus, UniProt Q8R455). To be noted: cited from earlier work.
In data set [2] the target is T1, TRPM8. Kind of data set: Confirmation test of inhibitory effects on icilin-induced wet-dog shakes. Particulars: icilin 1 mg/kg i.p. after 1 hour, shakes counted for 5 minutes. Format: in vivo, female SD rats. Also noted: test compounds were orally administered to female SD rats; from tissue; host or cells: whole animal (female SD rats), endogenous channel. As to the method: Test compounds were dissolved in dimethylacetamide (wako), and 0.5% methylcellulose solution (wako) was added to make the solution or suspension containing 5% of dimethylacetamide. At a dose of 3 or 10 mg/kg/5 mL of test compounds were orally administered to female SD rats. After 1 hour, wet-dog shakes were induced by the intrapenitoneal injection of icilin (1 mg/kg) which was dissolved in polyethylene glycol 400 (wako). From 5 minutes after the administration of icilin, wet-dog shakes were counted for 5 minutes. For control example, vehicle (a mixture of dimethylacetamide (wako): 0.5% methylcellulose (wako)=5:95) was administrated similarly, and the number of wet-dog shakes was counted in the same manner. A percent inhibition of wet-dog shakes by test compound was calculated from the following formula: [1-(test compound wet-dog shake count/vehicle wet-dog shake count)]×100.

Data set [3] concerns overactive bladder induced by acetic acid. In words: Confirmation test of elongation action of micturition interval of overactive bladder induced by acetic acid. Format: in vivo, female SD rats. Particulars: Rattus norvegicus, iv, interval before administration = 100%. As to the method: Urethane (sigma) was dissolved into pure water by 25% w/v, and female SD rats were anesthetized with 1.25 g/kg urethane by subcutaneous administration. Cannulae were placed in femoral vein and bladder, and the bladder cannula was connected to both a syringe pump and a pressure transducer. Detrusor overactivity was induced by intravesical infusion of 0.25% acetic acid in saline at a rate of 3.6 mL/h, and intravesical pressure was monitored via pressure transducer concurrently. Test compounds were dissolved into a mixture of dimethylacetamide and saline (20:80), and were administered via the femoral vein. When an average of the three micturition interval before administration was taken as 100%, an average of the three micturition interval after administration was calculated as Elongation of micturition interval (%) Dose and results are shown in tables 46 and 47.

Where [4] appears, read: 1 mg/kg/ml via the femoral vein.
Setting [5] is: 1 mg/kg/2 ml via the femoral vein.

T1 sequence (Q8R455 whole entry): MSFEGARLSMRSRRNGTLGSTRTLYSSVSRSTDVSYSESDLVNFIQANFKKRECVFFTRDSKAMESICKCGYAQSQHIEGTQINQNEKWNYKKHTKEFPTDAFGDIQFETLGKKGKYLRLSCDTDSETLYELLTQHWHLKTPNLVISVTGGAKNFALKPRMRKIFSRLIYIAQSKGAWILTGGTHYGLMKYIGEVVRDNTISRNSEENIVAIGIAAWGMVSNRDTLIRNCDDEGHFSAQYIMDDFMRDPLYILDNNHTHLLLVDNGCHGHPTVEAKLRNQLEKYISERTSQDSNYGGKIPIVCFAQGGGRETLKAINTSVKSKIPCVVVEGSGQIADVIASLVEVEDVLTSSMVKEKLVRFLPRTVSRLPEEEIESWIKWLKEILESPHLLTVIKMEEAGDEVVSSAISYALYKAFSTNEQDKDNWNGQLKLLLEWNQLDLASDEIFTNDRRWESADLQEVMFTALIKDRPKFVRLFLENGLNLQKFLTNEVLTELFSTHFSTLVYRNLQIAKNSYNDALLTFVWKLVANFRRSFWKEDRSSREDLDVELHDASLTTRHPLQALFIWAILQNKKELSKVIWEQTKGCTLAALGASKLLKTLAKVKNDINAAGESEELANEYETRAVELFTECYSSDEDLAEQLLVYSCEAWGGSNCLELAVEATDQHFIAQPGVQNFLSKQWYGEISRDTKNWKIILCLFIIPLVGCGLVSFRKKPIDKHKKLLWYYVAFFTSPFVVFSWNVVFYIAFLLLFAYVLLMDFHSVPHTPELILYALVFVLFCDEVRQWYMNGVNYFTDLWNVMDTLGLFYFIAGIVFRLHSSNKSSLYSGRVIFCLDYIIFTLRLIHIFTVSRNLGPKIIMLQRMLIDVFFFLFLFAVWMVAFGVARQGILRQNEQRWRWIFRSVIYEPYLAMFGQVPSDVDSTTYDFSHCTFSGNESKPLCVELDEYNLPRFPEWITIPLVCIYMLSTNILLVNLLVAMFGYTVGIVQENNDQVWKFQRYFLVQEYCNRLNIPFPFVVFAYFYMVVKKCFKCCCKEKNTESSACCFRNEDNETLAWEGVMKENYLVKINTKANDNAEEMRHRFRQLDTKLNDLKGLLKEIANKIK

`Cc1cccc(COc2ccccc2C(=O)N(CCCN)Cc2cccs2)c1.Cl` [AMTB, N-(3-aminopropyl)-2-{[(3-methylphenyl)methyl]oxy}-N-(2-thienylmethyl)benzamide hydrochloride]: in data set [1] (anesthetized rats), the “frequency of rhythmic bladder contractions” value is listed as “suppresses” and the “nociceptive reflex responses to bladder distension” value was “suppresses”. The average blood pressure result in data set [1] (rat, in vivo) is “decrease”.
On to `NC(=O)[C@@H](c1ccccc1)N(C(=O)c1cccnc1)[C@@H]1CCc2c(F)cc(Cl)cc21` [Example 2-23LP, N-[(R)-carbamoylphenylmethyl]-N-[(R)-6-chloro-4-fluoroindan-1-yl]nicotinamide], for which the “% inhibition of Wet-Dog Shake” value in data set [2] (dose 3 mg/kg orally) was 56%. In data set [3] (setting [4]), this compound showed a response vs control in vivo at 1 mg/kg of 205%.
For the compound `NC(=O)[C@@H](c1ccccc1)N(C(=O)c1cccnc1)[C@@H]1CCc2ccc(Cl)cc21` [Example 2-31LP, N-[(R)-carbamoylphenylmethyl]-N-[(R)-6-chloroindan-1-yl]nicotinamide], in data set [2] (dose 10 mg/kg orally), the “% inhibition of Wet-Dog Shake” value worked out at 87%. This compound also showed a response vs control in vivo at 1 mg/kg in data set [3] (setting [4]) of 176%.
With `COc1ncccc1C(=O)N([C@@H]1CCc2ccc(Cl)cc21)[C@@H](C(N)=O)c1ccccc1` [Example 2-46LP, N-[(R)-carbamoylphenylmethyl]-N-[(R)-6-chloroindan-1-yl]-2-methoxynicotinamide], the “% inhibition of Wet-Dog Shake” value in data set [2] (dose 3 mg/kg orally) was 79%. Also, the response vs control in vivo at 1 mg/kg in data set [3] (setting [4]) turned out to be 186%.
For `NC(=O)[C@@H](c1cccnc1)N(C(=O)c1ccccc1)[C@@H]1CCc2c(F)cc(Cl)cc21` [Example 2-66LP, N-[(R)-carbamoylpyridin-3-ylmethyl]-N-[(R)-6-chloro-4-fluoroindan-1-yl]benzamide], in data set [2] (dose 10 mg/kg orally), the “% inhibition of Wet-Dog Shake” value turned out to be 100%. Further, the response vs control in vivo at 1 mg/kg in data set [3] (setting [4]) is 175%.
For `NC(=O)[C@@H](c1ccccc1)N(C(=O)c1cncc(F)c1)[C@@H]1CCc2c(F)cc(Cl)cc21` [Example 2-86LP, N-[(R)-carbamoylphenylmethyl]-N-[(R)-6-chloro-4-fluoroindan-1-yl]-5-fluoronicotinamide], the “% inhibition of Wet-Dog Shake” value in data set [2] (dose 10 mg/kg orally) was 73%. The same compound displayed a response vs control in vivo at 1 mg/kg in data set [3] (setting [5]) of 145%.
As to `COc1ccccc1C(=O)N([C@@H]1CCc2c(F)cc(Cl)cc21)[C@@H](C(N)=O)c1ccccc1` [Example 2-89LP, N-[(R)-carbamoylphenylmethyl]-N-[(R)-6-chloro-4-fluoroindan-1-yl]-2-methoxybenzamide], the “% inhibition of Wet-Dog Shake” value in data set [2] (dose 3 mg/kg orally) is reported as 100%. This compound also gave a response vs control in vivo at 1 mg/kg in data set [3] (setting [5]) of 196%.
Consider `NC(=O)[C@@H](c1ccccc1)N(C(=O)c1cccc2c1OCC2)[C@@H]1CCc2c(F)cc(Cl)cc21` [Example 2-111LP, N-[(R)-carbamoylphenylmethyl]-N-[(R)-6-chloro-4-fluoroindan-1-yl]-2,3-dihydrobenzofuran-7-carboxamide], for which the “% inhibition of Wet-Dog Shake” value in data set [2] (dose 3 mg/kg orally) is 91%. This compound also gave a response vs control in vivo at 0.3 mg/kg in data set [3] (0.3 mg/kg/2 ml via the femoral vein) of 135%.
For the compound `Cc1ncccc1C(=O)N([C@@H]1CCc2c(F)cc(F)cc21)[C@@H](C(N)=O)c1ccccc1` [Example 2-131LP, N-[(R)-carbamoylphenylmethyl]-N-[(R)-4,6-difluoroindan-1-yl]-2-methylnicotinamide], the “% inhibition of Wet-Dog Shake” value in data set [2] (dose 3 mg/kg orally) came to 100%. In data set [3] (setting [4]), this compound had a response vs control in vivo at 1 mg/kg of 162%.
For `Cc1scnc1C(=O)N([C@@H]1CCc2c(F)cc(Cl)cc21)[C@@H](C(N)=O)c1ccccc1` [Example 2-147LP, N-[(R)-carbamoylphenylmethyl]-N-[(R)-6-chloro-4-fluoroindan-1-yl]-5-methylthiazole-4-carboxamide], the “% inhibition of Wet-Dog Shake” value in data set [2] (dose 3 mg/kg orally) worked out at 91%. Further, the response vs control in vivo at 1 mg/kg in data set [3] (setting [5]) is 146%.
Take `NC(=O)[C@@H](c1ccccc1)N(C(=O)c1ccccc1)[C@@H]1CCc2c(F)cc(F)cc21` [Example 2-221LP, N-[(R)-carbamoylphenylmethyl]-N-[(R)-4,6-difluoroindan-1-yl]benzamide]: the “% inhibition of Wet-Dog Shake” value in data set [2] (dose 10 mg/kg orally) came to 100%. For the same compound, the response vs control in vivo at 1 mg/kg in data set [3] (setting [5]) was 154%.
On the same counts, the results for `NC(=O)[C@@H](c1ccccc1)N(C(=O)c1ccccc1N)[C@@H]1CCc2c(F)cc(F)cc21` [Example 6-1, 2-amino-N-[(R)-carbamoylphenylmethyl]-N-[(R)-4,6-difluoroindan-1-yl]benzamide] are 89% and 194%.
For `COc1ncccc1C(=O)N([C@@H]1CCc2c(F)cc(Cl)cc21)[C@@H](C(N)=O)c1ccccc1` [Example 11, N-[(R)-carbamoylphenylmethyl]-N-[(R)-6-chloro-4-fluoroindan-1-yl]-2-methoxynicotinamide], the “% inhibition of Wet-Dog Shake” value in data set [2] (dose 3 mg/kg orally) worked out at 100%. In data set [3] (setting [4]), this compound gave a response vs control in vivo at 1 mg/kg of 162%.
Regarding `Cc1ncccc1C(=O)N([C@@H]1CCc2c(F)cc(Cl)cc21)[C@@H](C(N)=O)c1cccnc1` [Example 12, N-[(R)-carbamoylpyridin-3-ylmethyl]-N-[(R)-6-chloro-4-fluoroindan-1-yl]-2-methylnicotinamide], the “% inhibition of Wet-Dog Shake” value in data set [2] (dose 10 mg/kg orally) is 93%. For the same compound, in data set [3] (setting [4]), the response vs control in vivo at 1 mg/kg came out at 142%.
Turning to `NC(=O)[C@@H](c1ccccc1)N(C(=O)c1cccnc1N)[C@@H]1CCc2c(F)cc(Cl)cc21` [Example 13, 2-amino-N-[(R)-carbamoylphenylmethyl]-N-[(R)-6-chloro-4-fluoroindan-1-yl]nicotinamide], the “% inhibition of Wet-Dog Shake” value in data set [2] (dose 3 mg/kg orally) is recorded as 93%. Moreover, the response vs control in vivo at 1 mg/kg in data set [3] (setting [4]) amounted to 184%.
On the same counts, the results for `Cc1ncccc1C(=O)N([C@@H]1CCc2c(F)cc(Cl)cc21)[C@@H](C(N)=O)c1ccccc1` [Example 14LP, N-[(R)-carbamoylphenylmethyl]-N-[(R)-6-chloro-4-fluoroindan-1-yl]-2-methylnicotinamide] are 100% and 181%.
The matching figures for `Cc1ncsc1C(=O)N([C@@H]1CCc2c(F)cc(Cl)cc21)[C@@H](C(N)=O)c1ccccc1` [Example 15LP, N-[(R)-carbamoylphenylmethyl]-N-[(R)-6-chloro-4-fluoroindan-1-yl]-4-methylthiazole-5-carboxamide]: 100% and 188%.

These data come from US9458092B2, “α-Substituted glycinamide derivative” (KISSEI PHARMACEUTICAL CO., LTD., priority 2013, dated 2016).
